In US10150760B2, “Compounds for use in preparing heterocyclic triazole agonists of the APJ receptor” (AMGEN INC., priority 2016, dated 2018):
pEC50: −log10 of the molar value.

Biological target: human APJ receptor (Homo sapiens (Human), UniProt P35414)
Assay: [35S]GTPγS binding assay on membranes from CHO cells stably expressing human APJ receptor
Format: biochemical
Details: read-out: Activity hAPJ SPA EC50 IP
In short: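 Agonist-driven [35S]GTPγS (0.2 nM) binding was measured over 90 min at room temperature on human APJ-expressing CHO membranes with bead capture, in buffer containing 3 μM GDP, 200 mM NaCl and 5 mM MgCl2 (pH 7.5). Excess unlabelled GTPγS (100 μM) gave nonspecific signal; EC50 from non-linear fits.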

Sequence of human APJ receptor (P35414 whole entry): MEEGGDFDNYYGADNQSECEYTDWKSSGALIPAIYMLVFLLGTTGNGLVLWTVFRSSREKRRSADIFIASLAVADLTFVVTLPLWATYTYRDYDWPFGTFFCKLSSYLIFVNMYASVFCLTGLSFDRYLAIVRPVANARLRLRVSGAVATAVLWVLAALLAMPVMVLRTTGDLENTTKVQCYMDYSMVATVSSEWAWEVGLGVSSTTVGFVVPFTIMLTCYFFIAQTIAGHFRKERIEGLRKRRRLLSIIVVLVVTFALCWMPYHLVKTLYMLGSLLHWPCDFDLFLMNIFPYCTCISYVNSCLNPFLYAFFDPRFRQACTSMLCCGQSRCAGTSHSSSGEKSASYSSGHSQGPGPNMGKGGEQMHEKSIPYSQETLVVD

Row | Molecule | pEC50
1 | (1R,2S)-N-(5-((R)-2,3-dihydrobenzofuran-2-yl)-4-(4,6-dimethoxypyrimidin-5-yl)-4H-1,2,4-triazol-3-yl)-1-methoxy-1-(5-methylpyrimidin-2-yl)propane-2-sulfonamide or (1R,2S)-N-(5-((S)-2,3-dihydrobenzofuran-2-yl)-4-(4,6-dimethoxypyrimidin-5-yl)-4H-1,2,4-triazol-3-yl)-1-methoxy-1-(5-methylpyrimidin-2-yl)propane-2-sulfonamide [Example 233.0] | 5.90
2 | COc1ncnc(OC)c1-n1c(NS(=O)(=O)[C@@H](C)[C@H](C)c2ccc(Cl)cn2)nnc1[C@H]1CCOC1 (single isomer, unassigned) [Example 38.0, (2S,3R)-3-(5-chloro-2-pyridinyl)-N-(4-(4,6-dimethoxy-5-pyrimidinyl)-5-((3R)-tetrahydro-3-furanyl)-4H-1,2,4-triazol-3-yl)-2-butanesulfonamide or (2S,3R)-3-(5-chloro-2-pyridinyl)-N-(4-(4,6-dimethoxy-5-pyrimidinyl)-5-((3S)-tetrahydro-3-furanyl)-4H-1,2,4-triazol-3-yl)-2-butanesulfonamide] | 7.72
3 | COc1cccc(OC)c1-n1c(NS(=O)(=O)[C@@H](C)[C@H](OC)c2ncc(Cl)cn2)nnc1[C@H]1CCO[C@H]1C (single isomer, unassigned) [Example 116.0, (1R,2S)-1-(5-chloropyrimidin-2-yl)-N-(4-(2,6-dimethoxyphenyl)-5-((2R,3S)-2-methyltetrahydrofuran-3-yl)-4H-1,2,4-triazol-3-yl)-1-methoxypropane-2-sulfonamide or (1R,2S)-1-(5-chloropyrimidin-2-yl)-N-(4-(2,6-dimethoxyphenyl)-5-((2S,3R)-2-methyltetrahydrofuran-3-yl)-4H-1,2,4-triazol-3-yl)-1-methoxypropane-2-sulfonamide] | 6.72
4 | COc1cccc(OC)c1-n1c(NS(=O)(=O)[C@@H](C)[C@H](OC)c2ncc(Cl)cn2)nnc1[C@H]1CCC(=O)N1 (single isomer, unassigned) [Example 397.0, (1R,2S)-1-(5-chloro-2-pyrimidinyl)-N-(4-(2,6-dimethoxyphenyl)-5-((2R)-5-oxo-2-pyrrolidinyl)-4H-1,2,4-triazol-3-yl)-1-methoxy-2-propanesulfonamide or (1R,2S)-1-(5-chloro-2-pyrimidinyl)-N-(4-(2,6-dimethoxyphenyl)-5-((2S)-5-oxo-2-pyrrolidinyl)-4H-1,2,4-triazol-3-yl)-1-methoxy-2-propanesulfonamide] | 6.80
5 | COc1cccc(OC)c1-n1c(NS(=O)(=O)[C@@H](C)[C@H](C)c2ncc(C#N)cn2)nnc1[C@H]1CCOC1 (single isomer, unassigned) [Example 174.0, (2S,3R)-3-(5-cyano-2-pyrimidin-yl)-N-(4-(2,6-dimethoxyphenyl)-5-((3R)-tetrahydro-3-furanyl)-4H-1,2,4-triazol-3-yl)-2-butanesulfonamide or (2S,3R)-3-(5-cyano-2-pyrimidinyl)-N-(4-(2,6-dimethoxyphenyl)-5-((3S)-tetrahydro-3-furanyl)-4H-1,2,4-triazol-3-yl)-2-butanesulfonamide] | 6.68
6 | COc1ncnc(OC)c1-n1c(NS(=O)(=O)[C@@H](C)[C@H](C)c2ccc(Cl)cn2)nnc1[C@@H]1CCOC1 (single isomer, unassigned) [Example 37.0, (2S,3R)-3-(5-chloro-2-pyridinyl)-N-(4-(4,6-dimethoxy-5-pyrimidinyl)-5-((3S)-tetrahydro-3-furanyl)-4H-1,2,4-triazol-3-yl)-2-butanesulfonamide or (2S,3R)-3-(5-chloro-2-pyridinyl)-N-(4-(4,6-dimethoxy-5-pyrimidinyl)-5-((3R)-tetrahydro-3-furanyl)-4H-1,2,4-triazol-3-yl)-2-butanesulfonamide] | 7.92
7 | COc1cccc(OC)c1-n1c(NS(=O)(=O)[C@@H](C)[C@H](C)c2ncc(C)cn2)nnc1[C@H]1CN(S(C)(=O)=O)CCO1 (single isomer, unassigned) [Example 231.0] | 6.06
8 | (2S,3R)-3-(5-chloropyrimidin-2-yl)-N-(4-(2,6-dimethoxyphenyl)-5-((R)-1,1-dioxidotetrahydrothiophen-3-yl)-4H-1,2,4-triazol-3-yl)butane-2-sulfonamide or (2S,3R)-3-(5-chloropyrimidin-2-yl)-N-(4-(2,6-dimethoxyphenyl)-5-((S)-1,1-dioxidotetrahydrothiophen-3-yl)-4H-1,2,4-triazol-3-yl)butane-2-sulfonamide [Example 189.0] | 6.70
9 | COc1ncnc(OC)c1-n1c(NS(=O)(=O)[C@@H](C)[C@@H](OC(C)C)c2ncc(Cl)cn2)nnc1[C@H]1CCC(C)(C)O1 (single isomer, unassigned) [Example 279.0, (1S,2S)-1-(5-chloropyrimidin-2-yl)-N-(4-(4,6-dimethoxypyrimidin-5-yl)-5-((R)-5,5-dimethyltetrahydrofuran-2-yl)-4H-1,2,4-triazol-3-yl)-1-isopropoxypropane-2-sulfonamide or (1S,2S)-1-(5-chloropyrimidin-2-yl)-N-(4-(4,6-dimethoxypyrimidin-5-yl)-5-((S)-5,5-dimethyltetrahydrofuran-2-yl)-4H-1,2,4-triazol-3-yl)-1-isopropoxypropane-2-sulfonamide] | 9.17
10 | COc1ncnc(OC)c1-n1c(NS(=O)(=O)[C@@H](C)[C@@H](OC(C)C)c2ncc(Cl)cn2)nnc1[C@H]1CCOC1 (single isomer, unassigned) [Example 291.0, (1S,2S)-1-(5-chloropyrimidin-2-yl)-N-(4-(4,6-dimethoxypyrimidin-5-yl)-5-((R)-tetrahydrofuran-3-yl)-4H-1,2,4-triazol-3-yl)-1-isopropoxypropane-2-sulfonamide or (1S,2S)-1-(5-chloropyrimidin-2-yl)-N-(4-(4,6-dimethoxypyrimidin-5-yl)-5-((S)-tetrahydrofuran-3-yl)-4H-1,2,4-triazol-3-yl)-1-isopropoxypropane-2-sulfonamide] | 8.28
11 | COc1ccccc1-n1c(NS(=O)(=O)[C@@H](C)[C@H](OC)c2ncc(Cl)cn2)nnc1[C@@H]1CCCO1 [Example 240.0, (1R,2S)-1-(5-chloro-2-pyrimidinyl)-1-methoxy-N-(4-(2-methoxyphenyl)-5-((2S)-tetrahydro-2-furany1)-4H-1,2,4-triazol-3-y1)-2-propanesulfonamide] | 8.89
12 | COc1cccc(OC)c1-n1c(NS(=O)(=O)[C@@H](C)[C@H](C)c2ncc(F)cn2)nnc1[C@H]1CCOC1 (single isomer, unassigned) [Example 273.0, (2S,3R)-N-(4-(2,6-dimethoxyphenyl)-5-((R)-tetrahydrofuran-3-yl)-4H-1,2,4-triazol-3-yl)-3-(5-fluoropyrimidin-2-yl)butane-2-sulfonamide or (2S,3R)-N-(4-(2,6-dimethoxyphenyl)-5-((S)-tetrahydrofuran-3-yl)-4H-1,2,4-triazol-3-yl)-3-(5-fluoropyrimidin-2-yl)butane-2-sulfonamide] | 7.54
13 | (1R,2S)-N-(4-([1,1′-bi(cyclopropyl)]-1-yl)-5-((2R)-1,4-dioxan-2-yl)-4H-1,2,4-triazol-3-yl)-1-methoxy-1-(5-methyl-2-pyrazinyl)-2-propanesulfonamide or (1R,2S)-N-(4-([1,1′-bi(cyclopropyl)]-1-yl)-5-((2S)-1,4-dioxan-2-yl)-4H-1,2,4-triazol-3-yl)-1-methoxy-1-(5-methyl-2-pyrazinyl)-2-propanesulfonamide [Example 329.0] | 5.89
14 | COCCn1c(NS(=O)(=O)[C@@H](C)[C@H](OC)c2ncc(Cl)cn2)nnc1[C@H]1CCC(C)(C)O1 (single isomer, unassigned) [Example 288.0, (1R,2S)-1-(5-chloropyrimidin-2-yl)-N-(5-((R)-5,5-dimethyltetrahydrofuran-2-yl)-4-(2-methoxyethyl)-4H-1,2,4-triazol-3-yl)-1-methoxypropane-2-sulfonamide or (1R,2S)-1-(5-chloropyrimidin-2-yl)-N-(5-((S)-5,5-dimethyltetrahydrofuran-2-yl)-4-(2-methoxyethyl)-4H-1,2,4-triazol-3-yl)-1-methoxypropane-2-sulfonamide] | 6.39
15 | COCC1(n2c(NS(=O)(=O)[C@@H](C)[C@H](OC)c3ncc(Cl)cn3)nnc2[C@H]2CC[C@@H](C)O2)CC1 (single isomer, unassigned) [Example 285.0, (1R,2S)-1-(5-chloropyrimidin-2-yl)-1-methoxy-N-(4-(1-(methoxymethyl)cyclopropyl)-5-((2S,5S)-5-methyltetrahydrofuran-2-yl)-4H-1,2,4-triazol-3-yl)propane-2-sulfonamide or (1R,2S)-1-(5-chloropyrimidin-2-yl)-1-methoxy-N-(4-(1-(methoxymethyl)cyclopropyl)-5-((2R,5R)-5-methyltetrahydrofuran-2-yl)-4H-1,2,4-triazol-3-yl)propane-2-sulfonamide] | 7.19
16 | COc1cccc(OC)c1-n1c(NS(=O)(=O)[C@@H](C)[C@H](C)c2cnc(C)cn2)nnc1[C@H]1CCOC1 (single isomer, unassigned) [Example 132.0, (2S,3R)-N-(4-(2,6-dimethoxyphenyl)-5-((R)-tetrahydrofuran-3-yl)-4H-1,2,4-triazol-3-yl)-3-(5-methylpyrazin-2-yl)butane-2-sulfonamide or (2S,3R)-N-(4-(2,6-dimethoxyphenyl)-5-((S)-tetrahydrofuran-3-yl)-4H-1,2,4-triazol-3-yl)-3-(5-methylpyrazin-2-yl)butane-2-sulfonamide] | 6.85
17 | (2S,3R)-N-(4-(1,3-dimethoxy-2-propanyl)-5-((2R,5R)-5-methyltetrahydro-2-furanyl)-4H-1,2,4-triazol-3-yl)-3-(5-fluoro-2-pyrimidinyl)-2-butanesulfonamide or (2S,3R)-N-(4-(1,3-dimethoxy-2-propanyl)-5-((2S,5S)-5-methyltetrahydro-2-furanyl)-4H-1,2,4-triazol-3-yl)-3-(5-fluoro-2-pyrimidinyl)-2-butanesulfonamide [Example 369.0] | 7.68
